According to PubChem BioAssay (NCI):
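Grown in 96-well plates, cells were treated for 48 hours with each compound at five concentrations. Insufficient inhibition: endpoint recorded as highest concentration tested. The concentration for full growth arrest is given as TGI.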

Key:
Experiment in all cases: NCI-60 cell line screen, 48 h
SK-OV-3 ovarian = tested on: SK-OV-3 ovarian
U251 CNS = tested on: U251 CNS
CCRF-CEM leukemia = tested on: CCRF-CEM leukemia
HOP-62 NSCLC = tested on: HOP-62 NSCLC
MOLT-4 leukemia = tested on: MOLT-4 leukemia
TK-10 renal = tested on: TK-10 renal
UACC-257 melanoma = tested on: UACC-257 melanoma
SR leukemia = tested on: SR leukemia
MDA-N = tested on: MDA-N
SK-MEL-5 melanoma = tested on: SK-MEL-5 melanoma
A498 renal = tested on: A498 renal
A549 NSCLC = tested on: A549 NSCLC
CAKI-1 renal = tested on: CAKI-1 renal
OVCAR-3 ovarian = tested on: OVCAR-3 ovarian
SNB-75 CNS = tested on: SNB-75 CNS
MDA-MB-435 = tested on: MDA-MB-435
HL-60(TB) leukemia = tested on: HL-60(TB) leukemia
IGROV1 ovarian = tested on: IGROV1 ovarian
HS 578T breast = tested on: HS 578T breast
OVCAR-5 ovarian = tested on: OVCAR-5 ovarian
HCT-116 colon = tested on: HCT-116 colon
BT-549 breast = tested on: BT-549 breast
SW-620 colon = tested on: SW-620 colon
NCI-H23 lung = tested on: NCI-H23 lung
NCI-H460 lung = tested on: NCI-H460 lung
HOP-92 NSCLC = tested on: HOP-92 NSCLC
T-47D breast = tested on: T-47D breast
K-562 leukemia = tested on: K-562 leukemia
UO-31 renal = tested on: UO-31 renal
LOX IMVI melanoma = tested on: LOX IMVI melanoma
HCT-15 colon = tested on: HCT-15 colon
RXF 393 renal = tested on: RXF 393 renal
PC-3 prostate = tested on: PC-3 prostate
SK-MEL-28 melanoma = tested on: SK-MEL-28 melanoma
786-0 renal = tested on: 786-0 renal
UACC-62 melanoma = tested on: UACC-62 melanoma
NCI-H226 lung = tested on: NCI-H226 lung
EKVX NSCLC = tested on: EKVX NSCLC
MALME-3M melanoma = tested on: MALME-3M melanoma
SNB-19 CNS = tested on: SNB-19 CNS
M14 melanoma = tested on: M14 melanoma
OVCAR-4 ovarian = tested on: OVCAR-4 ovarian
ACHN renal = tested on: ACHN renal
SF-268 CNS = tested on: SF-268 CNS
HCC-2998 colon = tested on: HCC-2998 colon
MCF7 breast = tested on: MCF7 breast
KM12 colon = tested on: KM12 colon
SF-295 CNS = tested on: SF-295 CNS
SN12C renal = tested on: SN12C renal
HT29 colon = tested on: HT29 colon
SF-539 CNS = tested on: SF-539 CNS
OVCAR-8 ovarian = tested on: OVCAR-8 ovarian
MDA-MB-231 breast = tested on: MDA-MB-231 breast
SK-MEL-2 melanoma = tested on: SK-MEL-2 melanoma
DU-145 prostate = tested on: DU-145 prostate
RPMI-8226 leukemia = tested on: RPMI-8226 leukemia
NCI/ADR-RES ovarian = tested on: NCI/ADR-RES ovarian
COLO 205 colon = tested on: COLO 205 colon
NCI-H522 lung = tested on: NCI-H522 lung

Cc1cc(S(=O)(=O)n2ccnc2Oc2cccc(Cl)c2)c(SSc2cc(Cl)c(C)cc2S(=O)(=O)n2ccnc2Oc2cccc(Cl)c2)cc1Cl
TGI (SK-OV-3 ovarian): > 92.5 µM
TGI (U251 CNS): 12.4 µM
TGI (CCRF-CEM leukemia): 10.7 µM
TGI (HOP-62 NSCLC): 38.7 µM
TGI (MOLT-4 leukemia): 35 µM
TGI (TK-10 renal): > 100 µM
TGI (UACC-257 melanoma): > 100 µM
TGI (SR leukemia): > 100 µM
TGI (MDA-N): > 58.3 µM
TGI (SK-MEL-5 melanoma): 23 µM
TGI (A498 renal): 84.5 µM
TGI (A549 NSCLC): > 100 µM
TGI (CAKI-1 renal): > 43.5 µM
TGI (OVCAR-3 ovarian): > 100 µM
TGI (SNB-75 CNS): > 91.1 µM
TGI (MDA-MB-435): 48.3 µM
TGI (HL-60(TB) leukemia): 20.9 µM
TGI (IGROV1 ovarian): > 100 µM
TGI (HS 578T breast): 21.2 µM
TGI (OVCAR-5 ovarian): > 100 µM
TGI (HCT-116 colon): > 60.7 µM
TGI (BT-549 breast): 43 µM
TGI (SW-620 colon): > 100 µM
TGI (NCI-H23 lung): > 100 µM
TGI (NCI-H460 lung): > 71.1 µM
TGI (HOP-92 NSCLC): > 100 µM
TGI (T-47D breast): > 67.2 µM
TGI (K-562 leukemia): > 100 µM
TGI (UO-31 renal): > 100 µM
TGI (LOX IMVI melanoma): > 100 µM
TGI (HCT-15 colon): > 100 µM
TGI (RXF 393 renal): 24.2 µM
TGI (PC-3 prostate): > 78.5 µM
TGI (SK-MEL-28 melanoma): > 100 µM
TGI (786-0 renal): > 70 µM
TGI (UACC-62 melanoma): > 53.2 µM
TGI (NCI-H226 lung): 30.7 µM
TGI (EKVX NSCLC): > 100 µM
TGI (MALME-3M melanoma): 41.1 µM
TGI (SNB-19 CNS): > 100 µM
TGI (M14 melanoma): > 42 µM
TGI (OVCAR-4 ovarian): > 100 µM
TGI (ACHN renal): > 32 µM
TGI (SF-268 CNS): > 100 µM
TGI (HCC-2998 colon): 53 µM
TGI (MCF7 breast): > 29.3 µM
TGI (KM12 colon): > 100 µM
TGI (SF-295 CNS): > 46.9 µM
TGI (SN12C renal): > 100 µM
TGI (HT29 colon): 48.5 µM
TGI (SF-539 CNS): 37 µM
TGI (OVCAR-8 ovarian): > 41.8 µM
TGI (MDA-MB-231 breast): > 51.3 µM
TGI (SK-MEL-2 melanoma): 26.9 µM
TGI (DU-145 prostate): > 78.7 µM
TGI (RPMI-8226 leukemia): > 38.7 µM
TGI (NCI/ADR-RES ovarian): 21.8 µM

Cc1cc(O)c(C=O)c2c1C(=O)Oc1c(CO)c(O)c3c(c1O2)C(O)OC3=O (stereo not given)
TGI (SK-OV-3 ovarian): > 100 µM
TGI (U251 CNS): > 100 µM
TGI (CCRF-CEM leukemia): > 100 µM
TGI (HOP-62 NSCLC): > 100 µM
TGI (MOLT-4 leukemia): 94.1 µM
TGI (TK-10 renal): > 100 µM
TGI (UACC-257 melanoma): > 100 µM
TGI (SR leukemia): 66.2 µM
TGI (MDA-N): > 100 µM
TGI (SK-MEL-5 melanoma): > 100 µM
TGI (A498 renal): > 100 µM
TGI (A549 NSCLC): > 100 µM
TGI (CAKI-1 renal): > 100 µM
TGI (OVCAR-3 ovarian): > 100 µM
TGI (SNB-75 CNS): > 100 µM
TGI (MDA-MB-435): > 100 µM
TGI (HL-60(TB) leukemia): 79.2 µM
TGI (COLO 205 colon): > 100 µM
TGI (IGROV1 ovarian): > 100 µM
TGI (HS 578T breast): > 100 µM
TGI (OVCAR-5 ovarian): > 100 µM
TGI (HCT-116 colon): > 100 µM
TGI (BT-549 breast): > 100 µM
TGI (SW-620 colon): > 100 µM
TGI (NCI-H23 lung): > 100 µM
TGI (HOP-92 NSCLC): > 100 µM
TGI (T-47D breast): > 100 µM
TGI (UO-31 renal): > 100 µM
TGI (LOX IMVI melanoma): > 100 µM
TGI (HCT-15 colon): > 100 µM
TGI (RXF 393 renal): > 100 µM
TGI (PC-3 prostate): > 100 µM
TGI (SK-MEL-28 melanoma): > 100 µM
TGI (786-0 renal): > 100 µM
TGI (UACC-62 melanoma): > 100 µM
TGI (NCI-H226 lung): > 100 µM
TGI (EKVX NSCLC): > 100 µM
TGI (MALME-3M melanoma): > 100 µM
TGI (SNB-19 CNS): > 100 µM
TGI (M14 melanoma): > 100 µM
TGI (OVCAR-4 ovarian): > 100 µM
TGI (ACHN renal): > 100 µM
TGI (NCI-H522 lung): > 100 µM
TGI (SF-268 CNS): > 100 µM
TGI (HCC-2998 colon): > 100 µM
TGI (MCF7 breast): > 100 µM
TGI (KM12 colon): > 100 µM
TGI (SF-295 CNS): > 100 µM
TGI (SN12C renal): > 100 µM
TGI (HT29 colon): > 100 µM
TGI (SF-539 CNS): > 100 µM
TGI (OVCAR-8 ovarian): > 100 µM
TGI (MDA-MB-231 breast): > 100 µM
TGI (SK-MEL-2 melanoma): > 100 µM
TGI (DU-145 prostate): > 100 µM
TGI (RPMI-8226 leukemia): 54.5 µM
TGI (NCI/ADR-RES ovarian): > 100 µM

Cc1ccc([N+](=O)[O-])cc1S(=O)(=O)Nc1ccc(C2=NN(C(=O)c3ccccc3)C(c3ccccc3)C2)cc1 (stereo not given)
TGI (SK-OV-3 ovarian): 73.7 µM
TGI (U251 CNS): > 100 µM
TGI (CCRF-CEM leukemia): > 100 µM
TGI (HOP-62 NSCLC): 72 µM
TGI (MOLT-4 leukemia): > 100 µM
TGI (TK-10 renal): 68.8 µM
TGI (UACC-257 melanoma): 64.7 µM
TGI (SR leukemia): > 100 µM
TGI (MDA-N): 67.4 µM
TGI (SK-MEL-5 melanoma): 30.4 µM
TGI (A498 renal): 51.3 µM
TGI (A549 NSCLC): > 100 µM
TGI (CAKI-1 renal): > 100 µM
TGI (OVCAR-3 ovarian): 49 µM
TGI (SNB-75 CNS): 49.9 µM
TGI (MDA-MB-435): > 100 µM
TGI (HL-60(TB) leukemia): 81.8 µM
TGI (COLO 205 colon): 33.9 µM
TGI (IGROV1 ovarian): 95.2 µM
TGI (HS 578T breast): > 100 µM
TGI (OVCAR-5 ovarian): > 100 µM
TGI (HCT-116 colon): > 100 µM
TGI (BT-549 breast): 96.9 µM
TGI (SW-620 colon): > 100 µM
TGI (NCI-H23 lung): 68.2 µM
TGI (HOP-92 NSCLC): 62.9 µM
TGI (T-47D breast): 97.5 µM
TGI (K-562 leukemia): > 100 µM
TGI (UO-31 renal): > 100 µM
TGI (LOX IMVI melanoma): > 100 µM
TGI (HCT-15 colon): > 100 µM
TGI (RXF 393 renal): 57.3 µM
TGI (PC-3 prostate): > 100 µM
TGI (SK-MEL-28 melanoma): > 100 µM
TGI (786-0 renal): 48.2 µM
TGI (NCI-H226 lung): 72.2 µM
TGI (EKVX NSCLC): 59.7 µM
TGI (MALME-3M melanoma): 66.6 µM
TGI (SNB-19 CNS): > 100 µM
TGI (M14 melanoma): > 100 µM
TGI (OVCAR-4 ovarian): > 100 µM
TGI (ACHN renal): 93.6 µM
TGI (NCI-H522 lung): 58.2 µM
TGI (SF-268 CNS): > 100 µM
TGI (MCF7 breast): 75.7 µM
TGI (KM12 colon): > 100 µM
TGI (SF-295 CNS): > 100 µM
TGI (SN12C renal): 63.1 µM
TGI (HT29 colon): > 100 µM
TGI (SF-539 CNS): 55.2 µM
TGI (OVCAR-8 ovarian): > 100 µM
TGI (MDA-MB-231 breast): 46.3 µM
TGI (SK-MEL-2 melanoma): 38.7 µM
TGI (DU-145 prostate): > 100 µM
TGI (RPMI-8226 leukemia): > 100 µM
TGI (NCI/ADR-RES ovarian): > 100 µM
